Results: ChEMBL document CHEMBL1268990, “Substituted pyrazoles as novel sEH antagonist: investigation of key binding interactions within the catalytic domain” (Bioorg Med Chem Lett, 2010)

Tested on: Liver microsomes
Experiment: Metabolic stability in human liver microsomes
Type: ADME, Microsome

## O=C(Nc1ccc(-n2nc(-c3cccnc3)cc2C(F)(F)F)cn1)c1ccccc1
  Stability: 36%

## O=C(Nc1ccc(-n2nc(-c3cccnc3)cc2C(F)(F)F)nn1)c1ccccc1
  Stability: 31%
